Measurements taken from PubChem BioAssay (NCI).
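Grown in 96-well plates, cells were treated for 48 hours with each compound at five concentrations. Insufficient inhibition: endpoint recorded as highest concentration tested. TGI: total growth inhibition.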

Key:
Test in all cases: NCI anticancer screen, dose series, 48 h
NCI-H23 lung = tested on: NCI-H23 lung
T-47D breast = tested on: T-47D breast
MOLT-4 leukemia = tested on: MOLT-4 leukemia
HCT-116 colon = tested on: HCT-116 colon
RXF 393 renal = tested on: RXF 393 renal
UACC-62 melanoma = tested on: UACC-62 melanoma
ACHN renal = tested on: ACHN renal
MCF7 breast = tested on: MCF7 breast
OVCAR-4 ovarian = tested on: OVCAR-4 ovarian
SN12C renal = tested on: SN12C renal
HOP-62 NSCLC = tested on: HOP-62 NSCLC
MDA-MB-435 = tested on: MDA-MB-435
MDA-MB-231 breast = tested on: MDA-MB-231 breast
RPMI-8226 leukemia = tested on: RPMI-8226 leukemia
NCI/ADR-RES ovarian = tested on: NCI/ADR-RES ovarian
CAKI-1 renal = tested on: CAKI-1 renal
HL-60(TB) leukemia = tested on: HL-60(TB) leukemia
U251 CNS = tested on: U251 CNS
HS 578T breast = tested on: HS 578T breast
NCI-H522 lung = tested on: NCI-H522 lung

SMILES | TGI (NCI-H23 lung) [µM] | TGI (T-47D breast) [µM] | TGI (MOLT-4 leukemia) [µM] | TGI (HCT-116 colon) [µM] | TGI (RXF 393 renal) [µM] | TGI (UACC-62 melanoma) [µM] | TGI (ACHN renal) [µM] | TGI (MCF7 breast) [µM] | TGI (OVCAR-4 ovarian) [µM] | TGI (SN12C renal) [µM] | TGI (HOP-62 NSCLC) [µM] | TGI (MDA-MB-435) [µM] | TGI (MDA-MB-231 breast) [µM] | TGI (RPMI-8226 leukemia) [µM] | TGI (NCI/ADR-RES ovarian) [µM] | TGI (CAKI-1 renal) [µM] | TGI (HL-60(TB) leukemia) [µM] | TGI (U251 CNS) [µM] | TGI (HS 578T breast) [µM] | TGI (NCI-H522 lung) [µM]
O=c1c2ncn(C3CCCCO3)c2n(-c2ccccc2)c(=S)n1-c1ccccc1 (stereo not drawn) | 64.3 | > 77.3 | > 100 | > 100 | 25.4 | 56.5 | > 100 | > 100 | > 87.2 | > 100 | 29.9 | > 100 | 73.5 | > 100 | > 82.6 | > 97.7 | > 100 | > 74.2 | 53.6 | > 86.7
NNC(=O)Cc1cccnc1 | > 100 | > 100 | > 100 | > 100 | > 100 | > 100 | > 100 | > 100 | > 100 | > 100 | > 100 | > 100 | > 100 | > 100 | > 100 | > 100 | > 100 | > 100 | > 100 | > 100
[N-]=[N+]=C(C(=O)OCC#CCOC(=O)C(=[N+]=[N-])S(=O)(=O)c1ccccc1)S(=O)(=O)c1ccccc1 | > 10 | > 10 | > 10 | > 10 | > 10 | > 10 | > 10 | > 10 | > 10 | > 10 | > 10 | > 10 | > 10 | > 10 | > 10 | > 10 | > 10 | > 10 | > 10 | > 10
O=c1[nH]nc(-c2ccc([N+](=O)[O-])cc2)n1/N=C/c1ccc([N+](=O)[O-])cc1 | > 100 | > 100 | > 100 | > 100 | > 100 | > 100 | > 100 | > 100 | > 100 | > 100 | > 100 | > 100 | > 100 | > 100 | > 100 | > 100 | > 100 | > 100 | > 100 | > 100
CC(=O)OC(CC(C)C)P1(=O)N(CC(C)(C)C)[C@@H]2CCCC[C@H]2N1CC(C)(C)C (stereo partly drawn) | 23.1 | 19.7 | 25.3 | 16.2 | 18.1 | 23.3 | 19.3 | 17.4 | 23.6 | 24.4 | 29.9 | 25.3 | 19.7 | 15.3 | 22.6 | 26 | 23.1 | 20.1 | 25.3 | 19.2
O=c1[nH]nc(Cc2ccccc2)n1/N=C/c1ccc([N+](=O)[O-])o1 | 74.8 | 79.1 | > 100 | 6.13 | 7.94 | 4.56 | 27.4 | > 100 | 24.4 | 46 | 22 | 3.8 | 18.4 | 21.2 | 13.1 | 25 | > 100 | 16.3 | 7.29 | 3.87
Cc1ccc(C(=O)Cc2nc3ncccc3[nH]c2=O)cc1 | 42.3 | > 100 | > 100 | 70.4 | > 100 | > 100 | 69.3 | > 100 | 84 | > 100 | 48.4 | 39.8 | 60.7 | > 100 | > 100 | > 100 | > 100 | 52.7 | 71.3 | > 100
O=C(CCCC1Cc2ccccc2C1=O)c1ccccc1 (stereo not drawn) | > 100 | > 100 | > 100 | > 100 | > 100 | > 100 | > 100 | 56.3 | > 100 | > 100 | > 100 | > 100 | > 100 | > 100 | 84.6 | > 100 | 77.4 | > 100 | > 100 | > 100
COc1ccc(C2c3cc4c(cc3OC(NNC(N)=O)C2C)OCO4)cc1 (stereo not drawn) | > 86.1 | > 100 | 74.5 | 21.5 | 54.5 | > 70.2 | > 100 | > 100 | > 100 | > 100 | > 54.4 | 8.2 | > 100 | 20.2 | > 100 | > 100 | 5.22 | 35.2 | > 100 | 18.3
OCCN1CN(c2nc(N3CN(CCO)C3)nc(N3CN(CCO)C3)n2)C1 | 50 | 64.7 | > 100 | 42 | 44.8 | 28.8 | 95.3 | 46.9 | 85.6 | 39.5 | 39.2 | 32.4 | 36.6 | > 100 | > 100 | 58.2 | 40.1 | 53 | 66.7 | 30
O=C(O)C(F)(F)C(F)(F)C(F)(F)C(F)(F)C(=O)O | > 100 | > 100 |  | > 100 | > 100 | > 100 | > 100 | > 100 | > 100 | > 100 | > 100 | > 100 | > 100 | > 100 | > 100 | > 100 | > 100 | > 100 | > 100 | > 100
Cc1c(C#N)c2nnn(-c3ccc([N+](=O)[O-])cc3)c(=O)n2c1-c1ccccc1 | 18.5 | 14.3 |  | 19 | 31.2 | 19.4 | 16.4 | 19.6 | 27.5 | 24.9 | 19.8 | 42.9 | 34.7 | > 100 | 65.5 | 52.2 | 60.3 | 14.5 | > 100 | 13.9
